Source: ChEMBL document CHEMBL1201862, “PubChem BioAssay data set” (2004)
Values joined by “and” are separate entries in the source; they are usually repeats but may differ in a detail not shown here. Equal values may be shown once. Active and inactive are the calls of the source.

Key:
[1] = molecular target: T1, Mannose-6-phosphate isomerase (Homo sapiens, UniProt P34949); test: PMI enzyme inhibitors, confirmation, biochemical, fluorescence intensity (AID 1535)
T1 sequence (P34949 whole entry): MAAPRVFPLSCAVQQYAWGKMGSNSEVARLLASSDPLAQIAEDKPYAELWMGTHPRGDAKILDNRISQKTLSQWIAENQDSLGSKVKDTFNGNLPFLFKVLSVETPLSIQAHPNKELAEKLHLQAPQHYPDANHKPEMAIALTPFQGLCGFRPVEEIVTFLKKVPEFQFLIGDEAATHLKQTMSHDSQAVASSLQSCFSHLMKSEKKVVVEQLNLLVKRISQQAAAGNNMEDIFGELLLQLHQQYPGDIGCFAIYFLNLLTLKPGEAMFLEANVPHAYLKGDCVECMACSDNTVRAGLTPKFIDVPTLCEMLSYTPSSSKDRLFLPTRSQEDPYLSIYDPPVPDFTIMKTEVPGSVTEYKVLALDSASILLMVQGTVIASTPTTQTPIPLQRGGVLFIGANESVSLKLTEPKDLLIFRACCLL

[2] = molecular target: Phosphomannomutase 2 (Homo sapiens, UniProt O15305); test: Counter screen SAR assay for PMM2 inhibitors via a fluorescence intensity assay. [Related pubchem assays (depositor defined):AID1545, AID1574]
[3] = molecular target: T1, Mannose-6-phosphate isomerase; test: Confirmation of compounds inhibiting phosphomannose isomerase (PMI) via a fluorescence intensity assay using a high concentration of mannose 6-phosphate. [Related pubchem assays (depositor defined):AID1209, AID1220, AID1545, AID1553, AID1620]
[4] = molecular target: T2, Dual specificity protein phosphatase 3 (Homo sapiens, UniProt P51452); test: VHR1 phosphatase inhibitors, biochemical (AID 1878)
[5] = molecular target: T3, Carboxy-terminal domain RNA polymerase II polypeptide A small phosphatase 1 (Homo sapiens, UniProt Q9GZU7); test: inhibitors of CTDSP1, concentration-response testing, biochemical assay, absorbance-based, actives from ultra-high-throughput screening (AID 540297); assay type: functional
T3 sequence (Q9GZU7 whole entry): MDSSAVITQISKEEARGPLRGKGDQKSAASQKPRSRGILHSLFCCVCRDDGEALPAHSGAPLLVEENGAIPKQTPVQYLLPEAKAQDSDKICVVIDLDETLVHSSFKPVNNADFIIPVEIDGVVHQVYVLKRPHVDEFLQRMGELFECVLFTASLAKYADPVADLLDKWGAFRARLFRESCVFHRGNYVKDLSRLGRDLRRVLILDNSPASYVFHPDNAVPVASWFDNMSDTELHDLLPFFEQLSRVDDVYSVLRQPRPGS

[6] = molecular target: T4, Dual specificity protein phosphatase 6 (Rattus norvegicus, UniProt Q64346); test: MKP-3 phosphatase inhibitors, primary screen, biochemical, rat enzyme, in vitro (AID 425)
T4 sequence (Q64346 whole entry): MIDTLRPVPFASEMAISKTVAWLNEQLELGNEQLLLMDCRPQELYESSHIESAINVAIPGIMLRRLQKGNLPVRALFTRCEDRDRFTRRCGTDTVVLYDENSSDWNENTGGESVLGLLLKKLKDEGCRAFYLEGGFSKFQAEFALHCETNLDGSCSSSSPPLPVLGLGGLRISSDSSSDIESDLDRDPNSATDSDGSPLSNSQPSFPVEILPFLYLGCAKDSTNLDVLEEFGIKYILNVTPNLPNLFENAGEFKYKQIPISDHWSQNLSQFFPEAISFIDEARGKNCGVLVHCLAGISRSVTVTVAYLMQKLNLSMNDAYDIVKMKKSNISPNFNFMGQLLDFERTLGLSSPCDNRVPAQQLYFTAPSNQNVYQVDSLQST

[7] = molecular target: T2, Dual specificity protein phosphatase 3; test: VHR1 phosphatase inhibitors, primary screen, biochemical, absorbance, uHTS (AID 1654)
[8] = molecular target: T5, Intestinal-type alkaline phosphatase (Mus musculus, UniProt P24822); test: PubChem AID 488785; assay type: functional
[9] = molecular target: T6, Intestinal-type alkaline phosphatase (Homo sapiens, UniProt P09923); test: inhibition of human intestinal alkaline phosphatase – biochemical, dose response (AID 488876); assay type: functional
[10] = molecular target: T7, Alkaline phosphatase, tissue-nonspecific isozyme (Homo sapiens, UniProt P05186); test: TNAP enzyme inhibition by screening hits, dose response, selectivity assay for mouse IAP inhibitor project, biochemical, human TNAP, uHTS hits (AID 488906); assay type: functional
T7 sequence (P05186 whole entry): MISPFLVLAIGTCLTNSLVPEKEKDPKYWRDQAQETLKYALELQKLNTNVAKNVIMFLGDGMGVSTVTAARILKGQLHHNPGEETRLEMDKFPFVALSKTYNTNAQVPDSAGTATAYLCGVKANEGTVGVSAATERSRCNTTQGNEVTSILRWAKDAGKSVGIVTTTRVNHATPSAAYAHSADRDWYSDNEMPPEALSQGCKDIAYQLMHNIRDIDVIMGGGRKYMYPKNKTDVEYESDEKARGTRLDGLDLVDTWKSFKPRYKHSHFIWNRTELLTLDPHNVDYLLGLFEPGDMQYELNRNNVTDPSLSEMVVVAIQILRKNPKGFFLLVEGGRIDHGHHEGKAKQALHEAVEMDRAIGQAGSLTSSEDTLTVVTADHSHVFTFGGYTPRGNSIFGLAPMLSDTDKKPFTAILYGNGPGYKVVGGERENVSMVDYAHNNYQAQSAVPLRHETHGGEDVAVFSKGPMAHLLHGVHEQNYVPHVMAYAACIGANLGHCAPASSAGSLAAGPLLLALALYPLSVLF

[11] = molecular target: T8, Streptokinase A (Streptococcus pyogenes serotype M1, UniProt P10520); test: S. pyogenes streptokinase expression inhibitors, potency, dose response, plasminogen activation absorbance, OD405 (AID 1914); assay type: functional, Streptococcus pyogenes M1 GAS;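 also: secreted streptokinase activity via plasminogen activation per viability signal from cell pellet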
T8 sequence (P10520 whole entry): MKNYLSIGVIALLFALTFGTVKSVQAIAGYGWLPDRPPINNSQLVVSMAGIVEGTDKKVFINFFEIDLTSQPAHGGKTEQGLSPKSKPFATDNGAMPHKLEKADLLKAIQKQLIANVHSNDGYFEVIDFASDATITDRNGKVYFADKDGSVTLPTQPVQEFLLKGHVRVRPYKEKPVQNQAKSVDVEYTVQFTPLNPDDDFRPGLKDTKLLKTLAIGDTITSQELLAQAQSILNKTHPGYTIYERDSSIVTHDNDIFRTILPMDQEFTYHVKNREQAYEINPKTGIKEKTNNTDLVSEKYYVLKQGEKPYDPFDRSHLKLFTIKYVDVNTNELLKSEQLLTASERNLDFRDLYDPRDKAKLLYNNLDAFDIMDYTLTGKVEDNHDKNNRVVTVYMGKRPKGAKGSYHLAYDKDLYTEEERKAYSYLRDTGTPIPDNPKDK

[12] = molecular target: T7, Alkaline phosphatase, tissue-nonspecific isozyme; test: TNAP enzyme activators, dose response, selectivity assay for human IAP activator project, biochemical, TNAP isozyme, human IAP uHTS hits (AID 488886); assay type: functional;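 also: potency of compounds raising TNAP activity as a selectivity check on IAP activators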
[13] = molecular target: T6, Intestinal-type alkaline phosphatase; test: human intestinal alkaline phosphatase activators, dose response, biochemical, luminescence, uHTS hits (AID 463120); assay type: functional
[14] = molecular target: T5, Intestinal-type alkaline phosphatase; test: PubChem AID 488875; assay type: functional
[15] = molecular target: T6, Intestinal-type alkaline phosphatase; test: human IAP activators, dose response, biochemical, luminescent, uHTS hits, set 2 (AID 488817); assay type: functional;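 also: potency of activators that raise enzyme activity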
[16] = molecular target: Lysine-specific demethylase 4C (Homo sapiens, UniProt Q9H3R0); test: GASC-1 (JMJD2C) histone demethylase inhibitors, dose response, biochemical, DELFIA europium, cherry-picked samples (AID 488835); assay type: functional
[17] = molecular target: T9, Tyrosine-protein phosphatase non-receptor type 22 (Homo sapiens, UniProt Q9Y2R2); assay type: functional
T9 sequence (Q9Y2R2 whole entry): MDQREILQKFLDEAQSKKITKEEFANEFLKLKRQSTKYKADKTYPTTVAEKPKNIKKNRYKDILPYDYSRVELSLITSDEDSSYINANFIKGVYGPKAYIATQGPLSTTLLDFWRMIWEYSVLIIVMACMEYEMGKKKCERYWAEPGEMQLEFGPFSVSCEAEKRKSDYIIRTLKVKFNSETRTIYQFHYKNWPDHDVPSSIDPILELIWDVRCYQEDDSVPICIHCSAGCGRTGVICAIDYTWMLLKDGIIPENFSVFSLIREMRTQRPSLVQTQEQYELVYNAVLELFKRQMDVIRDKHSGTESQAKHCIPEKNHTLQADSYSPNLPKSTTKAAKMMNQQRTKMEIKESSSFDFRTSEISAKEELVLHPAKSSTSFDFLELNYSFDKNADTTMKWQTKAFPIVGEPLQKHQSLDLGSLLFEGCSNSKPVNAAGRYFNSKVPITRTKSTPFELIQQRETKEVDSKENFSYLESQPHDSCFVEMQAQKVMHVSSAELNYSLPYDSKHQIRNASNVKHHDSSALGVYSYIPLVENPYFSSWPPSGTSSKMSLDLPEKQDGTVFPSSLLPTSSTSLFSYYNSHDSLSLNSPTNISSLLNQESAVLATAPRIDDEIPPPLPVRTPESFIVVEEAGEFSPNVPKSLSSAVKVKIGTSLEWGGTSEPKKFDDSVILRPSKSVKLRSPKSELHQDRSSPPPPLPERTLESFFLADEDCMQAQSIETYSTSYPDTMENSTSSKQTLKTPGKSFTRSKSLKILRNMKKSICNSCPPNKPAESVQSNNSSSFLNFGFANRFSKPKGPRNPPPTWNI

[18] = molecular target: T9, Tyrosine-protein phosphatase non-receptor type 22; assay type: functional; remark: listed apart in the source
[19] = molecular target: T10, Tyrosine-protein phosphatase non-receptor type 7 (Homo sapiens, UniProt P35236); assay type: functional
T10 sequence (P35236 whole entry): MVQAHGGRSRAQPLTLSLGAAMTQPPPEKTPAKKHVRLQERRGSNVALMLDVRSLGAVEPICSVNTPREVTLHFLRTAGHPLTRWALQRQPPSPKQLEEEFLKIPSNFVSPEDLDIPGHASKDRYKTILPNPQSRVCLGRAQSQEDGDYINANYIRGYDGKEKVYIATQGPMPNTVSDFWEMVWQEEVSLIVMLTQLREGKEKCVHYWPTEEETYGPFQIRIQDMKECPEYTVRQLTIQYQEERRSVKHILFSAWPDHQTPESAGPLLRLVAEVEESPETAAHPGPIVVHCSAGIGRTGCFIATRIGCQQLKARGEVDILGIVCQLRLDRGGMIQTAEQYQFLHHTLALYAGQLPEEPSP

[20] = molecular target: SUMO E1/E2 (Homo sapiens, UniProt P63279+Q9UBE0+Q9UBT2); test: SAR analysis of SUMOylation using HTRF in an in-Vitro dose response assay. [Related pubchem assays (depositor defined):AID2006, AID2011, AID2018, AID2069, AID2658]; assay type: functional
[21] = molecular target: T11, Sentrin-specific protease 8 (Homo sapiens, UniProt Q96LD8); assay type: functional
T11 sequence (Q96LD8 whole entry): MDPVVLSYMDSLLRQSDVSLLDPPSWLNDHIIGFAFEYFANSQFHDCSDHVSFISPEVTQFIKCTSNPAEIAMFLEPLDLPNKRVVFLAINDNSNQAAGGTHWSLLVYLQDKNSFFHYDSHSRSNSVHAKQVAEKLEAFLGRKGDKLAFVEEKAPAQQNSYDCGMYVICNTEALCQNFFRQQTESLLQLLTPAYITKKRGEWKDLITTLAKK

[22] = tested on: HEK293; test: NOD2 signaling inhibitors in MDP-stimulated cells, cell-based, uHTS, luminescence (AID 2001); assay type: functional; conditions: Homo sapiens
[23] = molecular target: T11, Sentrin-specific protease 8; assay type: functional; remark: listed apart in the source
[24] = molecular target: Nucleotide-binding oligomerization domain-containing protein 1 (Homo sapiens, UniProt Q9Y239); test: NOD1 signaling inhibitors, SAR follow-up, revised (AID 2333); assay type: functional
[25] = tested on: HEK293; test: cells; conditions: Homo sapiens
[26] = tested on: HEK293; test: cells; assay type: functional, cell-based; conditions: Homo sapiens
[27] = tested on: HEK293; test: NOD1 signaling inhibitors, primary screen, cell-based, luminescence, uHTS (AID 1578); assay type: functional; conditions: Homo sapiens
[28] = molecular target: Tumor necrosis factor (Homo sapiens, UniProt P01375); test: TNFa-triggered NF-kB activation inhibitors, SAR follow-up, cell-based, revised (AID 2337); assay type: functional
[29] = tested on: HEK293; test: cells; assay type: functional, cell-based; conditions: Homo sapiens; remark: listed apart in the source

T6 sequence (P09923 whole entry): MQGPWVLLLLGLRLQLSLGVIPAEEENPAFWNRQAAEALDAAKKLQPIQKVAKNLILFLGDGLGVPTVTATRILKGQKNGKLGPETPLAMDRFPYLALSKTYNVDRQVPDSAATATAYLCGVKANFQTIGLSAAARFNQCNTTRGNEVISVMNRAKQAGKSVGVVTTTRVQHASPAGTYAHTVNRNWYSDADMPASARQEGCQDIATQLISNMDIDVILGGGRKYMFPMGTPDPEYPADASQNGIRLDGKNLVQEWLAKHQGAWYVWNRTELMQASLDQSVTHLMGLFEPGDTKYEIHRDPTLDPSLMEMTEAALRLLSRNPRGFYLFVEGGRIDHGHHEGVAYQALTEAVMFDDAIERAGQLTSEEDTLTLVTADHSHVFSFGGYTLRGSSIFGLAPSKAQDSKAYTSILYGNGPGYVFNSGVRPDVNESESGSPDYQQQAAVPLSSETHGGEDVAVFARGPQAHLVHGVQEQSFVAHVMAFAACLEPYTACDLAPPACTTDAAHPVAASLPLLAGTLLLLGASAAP
Nucleotide-binding oligomerization domain-containing protein 1, sequence (Q9Y239 whole entry, the tested form may be a part): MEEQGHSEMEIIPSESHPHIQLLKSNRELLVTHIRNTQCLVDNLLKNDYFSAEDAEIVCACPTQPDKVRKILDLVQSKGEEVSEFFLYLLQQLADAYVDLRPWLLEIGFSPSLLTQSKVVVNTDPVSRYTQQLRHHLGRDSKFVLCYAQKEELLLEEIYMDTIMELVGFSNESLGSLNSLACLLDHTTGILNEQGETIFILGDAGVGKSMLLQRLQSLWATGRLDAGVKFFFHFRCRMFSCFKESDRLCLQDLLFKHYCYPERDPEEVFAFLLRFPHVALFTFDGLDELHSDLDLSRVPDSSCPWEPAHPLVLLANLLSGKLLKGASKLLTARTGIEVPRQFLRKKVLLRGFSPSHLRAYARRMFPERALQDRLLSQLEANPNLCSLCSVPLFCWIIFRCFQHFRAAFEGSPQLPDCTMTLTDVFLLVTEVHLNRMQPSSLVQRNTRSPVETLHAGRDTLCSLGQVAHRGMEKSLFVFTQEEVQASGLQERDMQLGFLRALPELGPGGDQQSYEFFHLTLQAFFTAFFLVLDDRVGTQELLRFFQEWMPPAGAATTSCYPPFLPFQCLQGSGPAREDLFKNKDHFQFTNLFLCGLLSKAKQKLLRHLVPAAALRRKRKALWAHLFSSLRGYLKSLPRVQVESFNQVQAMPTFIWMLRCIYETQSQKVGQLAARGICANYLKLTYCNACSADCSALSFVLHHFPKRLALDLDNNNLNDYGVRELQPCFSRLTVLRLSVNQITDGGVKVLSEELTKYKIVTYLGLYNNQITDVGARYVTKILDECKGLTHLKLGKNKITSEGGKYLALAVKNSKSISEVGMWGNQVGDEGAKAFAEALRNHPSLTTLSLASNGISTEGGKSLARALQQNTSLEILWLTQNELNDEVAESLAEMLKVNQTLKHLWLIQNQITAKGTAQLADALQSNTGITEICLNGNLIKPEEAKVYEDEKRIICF
T5 sequence (P24822 whole entry): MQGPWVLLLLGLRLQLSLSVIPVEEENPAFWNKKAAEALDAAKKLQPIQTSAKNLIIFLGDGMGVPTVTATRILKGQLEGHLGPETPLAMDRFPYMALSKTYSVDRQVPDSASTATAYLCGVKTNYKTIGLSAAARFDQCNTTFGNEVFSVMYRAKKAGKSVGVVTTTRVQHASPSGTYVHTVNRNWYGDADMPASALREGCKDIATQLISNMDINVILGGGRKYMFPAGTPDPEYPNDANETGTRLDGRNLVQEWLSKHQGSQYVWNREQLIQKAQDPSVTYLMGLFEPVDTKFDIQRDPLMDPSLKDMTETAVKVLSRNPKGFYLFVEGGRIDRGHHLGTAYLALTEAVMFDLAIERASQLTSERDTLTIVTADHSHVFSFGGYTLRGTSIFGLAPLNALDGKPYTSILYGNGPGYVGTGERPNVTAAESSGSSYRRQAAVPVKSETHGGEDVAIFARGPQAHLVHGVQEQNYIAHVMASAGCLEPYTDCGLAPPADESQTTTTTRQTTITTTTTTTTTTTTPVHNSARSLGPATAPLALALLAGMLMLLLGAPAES
T2 sequence (P51452 whole entry, the tested form may be a part): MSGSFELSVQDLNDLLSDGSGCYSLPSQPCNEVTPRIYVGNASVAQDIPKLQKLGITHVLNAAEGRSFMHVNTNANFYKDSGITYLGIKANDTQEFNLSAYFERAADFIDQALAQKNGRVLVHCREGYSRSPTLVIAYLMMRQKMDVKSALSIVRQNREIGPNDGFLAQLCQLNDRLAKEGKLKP
Tumor necrosis factor, sequence (P01375 whole entry): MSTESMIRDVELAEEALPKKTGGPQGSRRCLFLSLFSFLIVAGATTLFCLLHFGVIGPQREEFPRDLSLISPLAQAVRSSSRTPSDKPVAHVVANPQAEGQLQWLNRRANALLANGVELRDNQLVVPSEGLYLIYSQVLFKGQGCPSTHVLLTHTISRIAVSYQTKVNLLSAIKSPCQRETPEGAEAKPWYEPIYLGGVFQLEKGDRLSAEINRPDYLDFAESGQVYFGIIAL
Lysine-specific demethylase 4C, sequence (Q9H3R0 whole entry): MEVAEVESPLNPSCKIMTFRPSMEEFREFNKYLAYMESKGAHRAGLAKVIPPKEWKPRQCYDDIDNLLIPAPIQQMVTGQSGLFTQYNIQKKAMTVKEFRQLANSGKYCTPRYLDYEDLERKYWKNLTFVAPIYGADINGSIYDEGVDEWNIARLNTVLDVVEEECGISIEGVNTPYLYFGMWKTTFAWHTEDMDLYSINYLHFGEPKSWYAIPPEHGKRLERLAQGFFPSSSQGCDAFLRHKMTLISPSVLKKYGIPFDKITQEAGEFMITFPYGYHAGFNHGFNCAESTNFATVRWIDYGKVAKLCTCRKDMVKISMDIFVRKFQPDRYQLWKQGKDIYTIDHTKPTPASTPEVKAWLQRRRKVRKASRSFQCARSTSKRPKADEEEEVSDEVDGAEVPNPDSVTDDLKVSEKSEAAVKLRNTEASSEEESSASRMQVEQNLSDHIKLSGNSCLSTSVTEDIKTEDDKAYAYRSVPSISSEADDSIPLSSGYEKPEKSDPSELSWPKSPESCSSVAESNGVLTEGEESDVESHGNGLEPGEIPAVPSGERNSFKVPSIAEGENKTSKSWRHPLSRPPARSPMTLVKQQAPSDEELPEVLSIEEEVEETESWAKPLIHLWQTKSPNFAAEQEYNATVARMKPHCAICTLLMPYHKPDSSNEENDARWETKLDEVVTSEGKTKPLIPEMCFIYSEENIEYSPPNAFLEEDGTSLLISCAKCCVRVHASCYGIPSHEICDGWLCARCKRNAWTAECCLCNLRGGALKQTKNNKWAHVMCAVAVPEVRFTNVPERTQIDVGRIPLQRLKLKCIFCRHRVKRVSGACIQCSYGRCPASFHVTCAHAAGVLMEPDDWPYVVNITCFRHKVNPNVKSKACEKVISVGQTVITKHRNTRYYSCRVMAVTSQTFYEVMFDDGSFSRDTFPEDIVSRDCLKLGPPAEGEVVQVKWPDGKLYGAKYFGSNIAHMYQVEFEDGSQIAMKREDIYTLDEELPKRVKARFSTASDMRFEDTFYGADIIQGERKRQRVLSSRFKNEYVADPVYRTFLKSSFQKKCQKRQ
Phosphomannomutase 2, sequence (O15305 whole entry): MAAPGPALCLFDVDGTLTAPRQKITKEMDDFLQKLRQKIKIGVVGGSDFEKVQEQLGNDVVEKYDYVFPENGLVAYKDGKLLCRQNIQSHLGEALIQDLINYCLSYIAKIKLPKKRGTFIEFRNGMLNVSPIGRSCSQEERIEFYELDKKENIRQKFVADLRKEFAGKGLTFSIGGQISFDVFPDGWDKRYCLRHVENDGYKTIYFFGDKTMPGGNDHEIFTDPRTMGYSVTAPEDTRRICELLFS
SUMO E1/E2, sequence (Q9UBE0 whole entry): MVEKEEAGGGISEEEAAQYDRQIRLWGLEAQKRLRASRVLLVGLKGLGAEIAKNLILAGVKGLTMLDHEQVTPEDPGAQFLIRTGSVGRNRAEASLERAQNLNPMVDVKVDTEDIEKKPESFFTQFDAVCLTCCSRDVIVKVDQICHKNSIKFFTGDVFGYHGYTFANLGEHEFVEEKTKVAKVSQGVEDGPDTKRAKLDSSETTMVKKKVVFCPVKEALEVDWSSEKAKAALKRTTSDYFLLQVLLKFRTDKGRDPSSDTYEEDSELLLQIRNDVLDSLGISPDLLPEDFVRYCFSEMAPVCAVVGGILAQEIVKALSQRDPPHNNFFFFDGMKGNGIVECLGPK
SUMO E1/E2, sequence (Q9UBT2 whole entry): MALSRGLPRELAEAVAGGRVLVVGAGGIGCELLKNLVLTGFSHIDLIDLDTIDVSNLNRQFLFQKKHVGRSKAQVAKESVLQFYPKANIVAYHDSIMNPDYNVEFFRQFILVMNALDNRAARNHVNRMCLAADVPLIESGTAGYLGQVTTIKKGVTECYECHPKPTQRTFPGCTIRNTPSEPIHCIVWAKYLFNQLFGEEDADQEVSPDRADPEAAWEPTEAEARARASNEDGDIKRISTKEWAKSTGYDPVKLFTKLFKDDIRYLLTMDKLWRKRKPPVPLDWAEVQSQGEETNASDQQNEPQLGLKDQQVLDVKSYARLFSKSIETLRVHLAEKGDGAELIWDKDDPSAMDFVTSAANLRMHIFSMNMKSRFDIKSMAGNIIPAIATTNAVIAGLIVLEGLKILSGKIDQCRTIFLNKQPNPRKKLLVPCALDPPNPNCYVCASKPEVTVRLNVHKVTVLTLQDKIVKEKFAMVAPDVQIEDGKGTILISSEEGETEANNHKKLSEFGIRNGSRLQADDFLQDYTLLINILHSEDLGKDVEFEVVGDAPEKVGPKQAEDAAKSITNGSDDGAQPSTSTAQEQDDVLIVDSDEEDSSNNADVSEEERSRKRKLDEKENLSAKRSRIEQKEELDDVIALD
SUMO E1/E2, sequence (P63279 whole entry): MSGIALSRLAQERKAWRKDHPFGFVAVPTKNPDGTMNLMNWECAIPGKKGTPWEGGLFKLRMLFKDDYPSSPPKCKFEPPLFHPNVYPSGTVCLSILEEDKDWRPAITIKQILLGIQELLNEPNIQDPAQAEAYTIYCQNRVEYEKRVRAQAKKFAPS

SMILES: COc1ccc2c(=O)n(C3CCCC3)sc2c1
- IC50 [1]: 86.8 µM (active)
- IC50 [2]: > 100 µM (inactive)
- IC50 [3]: > 100 µM (inactive)

SMILES: CN1C(=O)/C(=C2\SC(=S)N(CCCCCC(=O)O)C2=O)c2ccccc21
- IC50 [4]: 2.4 µM (active)
- IC50 [5]: 0.836 µM (active)
- IC50 [6]: > 158 µM (not active)
- IC50 [7]: 5.97 µM (active)

SMILES: CCn1nc(C)c(CN2CCC(C(=O)Nc3cccc(-c4cccc(Cl)c4)c3)CC2)c1C
- IC50 [8]: 1.87 µM (active)
- IC50 [9]: 4.61 µM (active)
- IC50 [10]: 41 µM (active)

SMILES: CCC(NC(=S)NC1CCCCC1)c1ccc(C(C)C)cc1 (centres undefined)
- EC50 [11]: 43.4 µM (active)
- EC50 [12]: 54.3 µM (active)
- EC50 [13]: 81.2 µM (active)
- EC50 [14]: 60.1 µM (active)
- EC50 [15]: 52.4 µM (active)

SMILES: COc1ccccc1N1CCN(C(=O)CSc2nc(C)cc(O)n2)CC1
- AC50 [16]: 10.1 µM (active)

SMILES: CC1=NN(C(=O)c2ccc(Cn3ccc([N+](=O)[O-])n3)cc2)C(O)(C(F)(F)F)C1 (centres undefined)
- IC50 [17]: > 79.4 µM (inactive)
- IC50 [18]: > 79.4 µM (inactive)
- IC50 [19]: > 79.4 µM (inactive)

SMILES: C/C(=N\OCc1nc2ccccc2c(=O)n1/N=C/c1ccccc1O)c1ccccc1
- IC50 [20]: 29.2 µM (active)

SMILES: O=C(Nc1ccc(Cl)cc1)c1ccc(CN2CCc3ccccc3C2)cc1
- IC50 [21]: 22.1 µM (active)
- IC50 [22]: 5.45 µM (inactive)
- IC50 [23]: > 100 µM (inactive)
- IC50 [24]: 1.19 µM (active) and 833 nM (active)
- IC50 [25]: > 20 µM (inactive)
- IC50 [26]: 2.11 µM (active)
- EC50 [27]: 2.29 µM (active)
- IC50 [28]: 4.66 µM (active) and 491 nM (active)
- IC50 [29]: > 20 µM (inactive)
